Assay results reported in PubChem BioAssay (NCI).
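Protocol summary: plate cells (96-well), add compound at 5 concentrations, incubate 48 h, interpolate endpoints linearly. GI50 = concentration required for 50% inhibition of growth. The concentration for full growth arrest is given as TGI.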

How the values were obtained:
Test in all cases: growth of human tumour cells (NCI), 48 h
HOP-92 NSCLC = system: HOP-92 NSCLC
HT29 colon = system: HT29 colon
UACC-257 melanoma = system: UACC-257 melanoma
SF-295 CNS = system: SF-295 CNS
OVCAR-8 ovarian = system: OVCAR-8 ovarian
COLO 205 colon = system: COLO 205 colon
U251 CNS = system: U251 CNS
ACHN renal = system: ACHN renal
CCRF-CEM leukemia = system: CCRF-CEM leukemia
SR leukemia = system: SR leukemia

| Structure (SMILES) | TGI (HOP-92 NSCLC) | TGI (HT29 colon) | TGI (UACC-257 melanoma) | TGI (SF-295 CNS) | TGI (OVCAR-8 ovarian) | TGI (COLO 205 colon) | TGI (U251 CNS) | TGI (ACHN renal) | TGI (CCRF-CEM leukemia) | GI50 (HOP-92 NSCLC) | GI50 (UACC-257 melanoma) | GI50 (SF-295 CNS) | GI50 (SR leukemia) | TGI (SR leukemia) | GI50 (OVCAR-8 ovarian) | GI50 (COLO 205 colon) | GI50 (U251 CNS) | GI50 (ACHN renal) | GI50 (CCRF-CEM leukemia) | GI50 (HT29 colon) |
| --- | --- | --- | --- | --- | --- | --- | --- | --- | --- | --- | --- | --- | --- | --- | --- | --- | --- | --- | --- | --- |
| COc1ccc(OC)c(NC(=O)C2=C(C)NC(C)=C(C(=O)Nc3cc(OC)ccc3OC)C2c2ccccc2)c1 | > 100 µM | > 100 µM | > 100 µM | > 100 µM | > 100 µM | > 100 µM | > 100 µM | > 100 µM | > 100 µM | – | – | – | – | – | – | – | – | – | – | – |
| NC1C[C@H](n2cc(/C=C/Br)c(=O)[nH]c2=O)C[C@@H]1CO (some centres undefined) | – | > 100 µM | > 100 µM | > 100 µM | > 100 µM | > 100 µM | > 100 µM | > 100 µM | > 100 µM | – | – | – | – | – | – | – | – | – | – | – |
| CCCCCCCCCCCCCCCCN1CC2CCCCC2C1 (centres undefined) | 6.52 µM | – | 27 µM | 37 µM | 17.6 µM | 17.7 µM | > 100 µM | 31.1 µM | 6.56 µM | 2.38 µM | 12.6 µM | 14.6 µM | 2.07 µM | 4.64 µM | 4.18 µM | 4.37 µM | 14.5 µM | 15.7 µM | 2.43 µM | – |
| O=C1CC(c2ccc(O)cc2)C2(O1)C(=O)OC(C(O)CO)C2O (centres undefined) | – | > 100 µM | > 100 µM | > 100 µM | > 100 µM | > 100 µM | > 100 µM | > 100 µM | > 100 µM | – | – | – | – | – | – | – | – | – | – | – |
| O=C(O)/C=C\C(=O)N1C/C(=C\c2ccccc2Cl)C(=O)/C(=C/c2ccccc2Cl)C1 | 15.5 µM | – | 20.4 µM | 16.5 µM | 17 µM | 4.33 µM | 1.88 µM | – | 6.66 µM | 4.43 µM | 6.44 µM | 4.4 µM | 0.632 µM | 13 µM | 3.88 µM | 2.27 µM | 0.472 µM | – | 1.43 µM | – |
| CC1SC2=NC3=C(c4ccccc4C3=O)C(c3ccc(F)cc3)N2C1=O (centres undefined) | > 100 µM | > 100 µM | > 100 µM | > 100 µM | > 100 µM | > 100 µM | > 100 µM | > 100 µM | > 100 µM | – | – | – | – | – | – | – | – | – | – | – |
| O=C(N/C(=C\c1ccc2c(c1)OCO2)c1nc2ccccc2[nH]1)c1ccccc1 | 58.7 µM | – | 35.8 µM | > 100 µM | > 100 µM | > 60.3 µM | > 100 µM | > 100 µM | > 89.2 µM | – | – | – | – | 72.3 µM | – | – | – | – | – | – |
| Oc1cccc2ccc(N/N=C/c3cc(CN4CCCCC4)c(O)c4ncccc34)nc12 | 0.0857 µM | 1.46 µM | 1.04 µM | 3.07 µM | 2.06 µM | 1.36 µM | 1.28 µM | 1.19 µM | 10.8 µM | 0.0165 µM | 0.256 µM | 0.0686 µM | – | – | 0.0508 µM | 0.0651 µM | 0.0329 µM | 0.0344 µM | 0.0558 µM | 0.324 µM |
| COc1ccc(-c2nc3sc4c(c3c(=O)[nH]2)CCCCCC4)cc1 | 14.5 µM | – | > 33.2 µM | > 33.2 µM | > 33.2 µM | > 33.2 µM | – | > 33.2 µM | > 33.2 µM | 1.4 µM | > 33.2 µM | 0.989 µM | 0.717 µM | > 33.2 µM | 3.9 µM | 2.37 µM | – | 2.3 µM | > 33.2 µM | – |
| COc1cc(C(=O)C/C(CCCC(=O)Nc2ccccc2[N+](=O)[O-])=N/NC(=O)c2cc3ccccc3cc2O)ccc1O | > 100 µM | > 100 µM | 82 µM | > 100 µM | > 100 µM | 63.2 µM | > 100 µM | 98.3 µM | > 31.6 µM | – | – | – | – | – | – | – | – | – | – | – |
| CN(C)CCNc1c2c(c(NCCN(C)C)c3[nH]ccc13)C(=O)c1ccccc1C2=O | 28.5 µM | – | 19 µM | 3.25 µM | 9.21 µM | > 100 µM | 15.9 µM | 5.56 µM | – | 6.08 µM | 4.71 µM | 0.693 µM | – | – | 0.532 µM | 4.32 µM | 0.507 µM | 0.476 µM | 0.281 µM | 0.465 µM |
| COc1ccc(-c2nn3c(-c4cc(F)c(Cl)cc4Cl)nnc3s2)cc1 | 77.9 µM | 44.3 µM | > 100 µM | 65.3 µM | 62.1 µM | 36.8 µM | 74.5 µM | > 100 µM | > 100 µM | 24.2 µM | 32.2 µM | 16.2 µM | – | – | 22 µM | 16.5 µM | 24.6 µM | 37.8 µM | 28.8 µM | 18.5 µM |
| N#Cc1c(N2CCCC2)[nH]c(=O)c(C(c2c(Cl)cccc2Cl)c2c(O)c(C#N)c(N3CCCC3)[nH]c2=O)c1O | 28.5 µM | 35.5 µM | 26.7 µM | 37.4 µM | 33.1 µM | 17.4 µM | 95.1 µM | 34.1 µM | 5.06 µM | 10.2 µM | 12.4 µM | 18.7 µM | – | – | 15.8 µM | 5.11 µM | 13.4 µM | 16.8 µM | 1.91 µM | 15.8 µM |
| Nc1ccccc1C#C/C=C\C#Cc1cccs1 | 36.6 µM | 57.3 µM | > 57.8 µM | 46.1 µM | > 83.4 µM | 78.3 µM | 27.5 µM | 58.3 µM | 2.2 µM | 6.4 µM | 23.2 µM | 11.3 µM | – | – | 25 µM | 18.2 µM | 8.34 µM | 15.9 µM | 0.295 µM | 20.3 µM |
| C1C[OH+]CC[OH+]CCNCC[OH+]CC[OH+]CCN1.N.[Cl-].[Pt+4] | 58.3 µM | > 100 µM | 10.9 µM | 19.7 µM | > 100 µM | > 100 µM | > 100 µM | 44 µM | > 100 µM | 16.1 µM | 3.19 µM | 2.96 µM | – | – | 17 µM | 36.7 µM | 7.19 µM | 4.33 µM | 0.62 µM | 22.1 µM |
| CCN(CC)c1ccc(C(=O)c2ccccc2C(=O)O)c(O)c1 | > 100 µM | > 100 µM | > 100 µM | > 100 µM | > 100 µM | > 100 µM | > 100 µM | > 100 µM | > 100 µM | – | – | – | – | – | – | – | – | – | – | – |
| CCCCC(CC)CN=C(N)NC(N)=NCCCCCCN=C(N)NC(N)=NCC(CC)CCCC (centres undefined) | – | – | 8.73 µM | – | 5.19 µM | 3.31 µM | – | 7.74 µM | – | – | 2.62 µM | – | – | – | 2.08 µM | 1.82 µM | – | 2.85 µM | – | – |
| Cc1cc(N(CCC#N)CCC#N)ccc1N=Nc1cccc(C(=O)O)c1 | – | > 100 µM | > 100 µM | > 100 µM | > 100 µM | > 100 µM | > 100 µM | > 100 µM | > 100 µM | – | – | – | – | – | – | – | – | – | – | – |
| Cc1[nH]ccc2c1[nH]c1cc(=O)ccc12 | > 100 µM | > 100 µM | > 100 µM | > 100 µM | > 100 µM | > 100 µM | > 100 µM | > 100 µM | > 100 µM | – | – | – | – | – | – | – | – | – | – | – |
| CC1=C(C)C(=O)c2c(cc3ccccn23)C1=O | – | 36.6 µM | – | 31.8 µM | 61.1 µM | 34.5 µM | 27.2 µM | > 100 µM | > 100 µM | – | – | – | – | 72.5 µM | – | – | – | – | – | – |
| CN(C)C(=O)OC(Cn1cncn1)c1ccc(Cl)cc1Cl (centres undefined) | > 100 µM | > 100 µM | > 100 µM | > 100 µM | > 100 µM | > 100 µM | > 100 µM | > 100 µM | – | – | – | – | – | – | – | – | – | – | – | – |
| CC1=C(Oc2ccccc2)C(CCC(=O)O)c2c(O)cc(Cl)c(O)c21 (centres undefined) | > 100 µM | – | > 100 µM | > 100 µM | > 100 µM | > 100 µM | > 100 µM | – | > 100 µM | – | – | – | – | > 100 µM | – | – | – | – | – | – |
| Nc1ccn(CCNCCn2cnc3nc(N)[nH]c(=O)c32)c(=O)n1 | > 100 µM | > 100 µM | > 100 µM | > 100 µM | > 100 µM | > 100 µM | > 100 µM | > 100 µM | – | – | – | – | – | > 100 µM | – | – | – | – | – | – |
| CCOc1ccc(NC(=O)C(=O)CC(=O)C2=C(C)Nc3ccccc3S2)cc1 | > 50 µM | > 50 µM | > 50 µM | > 50 µM | > 50 µM | > 50 µM | > 50 µM | > 50 µM | > 50 µM | – | – | – | – | – | – | – | – | – | – | – |
| CC1=Nc2ccccc2S/C1=C(/C)NNC(=O)C(N)=O | > 100 µM | > 100 µM | > 100 µM | > 100 µM | > 100 µM | > 100 µM | > 100 µM | > 100 µM | > 100 µM | – | – | – | – | – | – | – | – | – | – | – |
| COc1ccc2nc(-c3cccs3)cc(C(O)CN3CCSCC3)c2c1 (centres undefined) | 62.1 µM | 74 µM | 63.7 µM | > 100 µM | 57.8 µM | 53.7 µM | 50.2 µM | 45.9 µM | 44.9 µM | – | – | – | – | – | – | – | – | – | – | – |
| COc1ccc(-c2n/c(=C\c3c(O)[nH]c4ccc(OC)cc34)cc3c2=Nc2ccccc2-3)cc1 | 36.1 µM | – | 4.48 µM | 24.1 µM | – | 56.8 µM | – | > 100 µM | – | 13.8 µM | 2.07 µM | 3.9 µM | – | – | – | 10.7 µM | – | 26.7 µM | – | – |
| CCOC(=O)COc1ccccc1/C=C1\CCC(CN(C)C)C1=O (centres undefined) | 25.8 µM | 22.6 µM | 16.3 µM | 35.5 µM | 15.1 µM | 11.1 µM | 14.8 µM | 26.9 µM | 8.42 µM | – | – | – | – | – | – | – | – | – | – | – |
| O=C(CN1CCOCC1)Nc1nc(-c2ccc(Cl)cc2)cs1 | > 100 µM | > 100 µM | – | > 100 µM | 72.2 µM | 93 µM | > 100 µM | 79.6 µM | 63.9 µM | – | – | – | – | – | – | – | – | – | – | – |
